Measurements published in ChEMBL document CHEMBL4261613, “Discovery of a potent orally bioavailable retinoic acid receptor-related orphan receptor-gamma-t (RORγt) inhibitor, S18-000003” (Bioorg Med Chem Lett, 2018).
In brackets after ≈: the same amount, converted by molar mass.

Legend:
[1] = molecular target: T1, Nuclear receptor ROR-gamma (Homo sapiens, UniProt P51449); assay: Displacement of [3H]-Digoxin from recombinant human GST-fused RORgammat LBD after 1 to 4 hrs by scintillation counting method
T1 sequence (P51449 whole entry): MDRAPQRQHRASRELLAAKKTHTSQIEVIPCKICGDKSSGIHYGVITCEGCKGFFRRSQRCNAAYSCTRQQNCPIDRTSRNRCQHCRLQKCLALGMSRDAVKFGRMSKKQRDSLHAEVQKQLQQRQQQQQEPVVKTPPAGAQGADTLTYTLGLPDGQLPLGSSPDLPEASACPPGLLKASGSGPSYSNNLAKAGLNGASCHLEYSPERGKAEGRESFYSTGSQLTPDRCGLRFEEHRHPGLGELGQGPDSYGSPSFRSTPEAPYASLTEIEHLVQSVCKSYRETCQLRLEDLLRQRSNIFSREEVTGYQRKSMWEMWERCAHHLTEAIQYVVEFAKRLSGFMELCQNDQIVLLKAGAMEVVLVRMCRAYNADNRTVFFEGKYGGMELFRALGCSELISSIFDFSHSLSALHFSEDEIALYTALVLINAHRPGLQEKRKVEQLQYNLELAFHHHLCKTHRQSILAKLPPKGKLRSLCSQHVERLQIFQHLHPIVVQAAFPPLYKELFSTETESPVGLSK

[2] = molecular target: T2, Nuclear receptor ROR-gamma (Homo sapiens) (UniProt P51449); assay: (§1) Transrepression of recombinant human GAL4-DBD fused RORgammat LBD expressed in HEK293 cells after 20 hrs by luciferase reporter gene assay; format: cell-based
T2 sequence (whole entry): T1 sequence (P51449 whole entry)

[3] = molecular target: T1, Nuclear receptor ROR-gamma; assay: as §1; format: cell-based
[4] = molecular target: T3, Nuclear receptor ROR-gamma (Mus musculus) (UniProt P51450); assay: (§2) Transrepression of recombinant mouse GAL4-DBD fused RORgammat LBD expressed in HEK293 cells after 20 hrs by luciferase reporter gene assay; format: cell-based
T3 sequence (whole entry): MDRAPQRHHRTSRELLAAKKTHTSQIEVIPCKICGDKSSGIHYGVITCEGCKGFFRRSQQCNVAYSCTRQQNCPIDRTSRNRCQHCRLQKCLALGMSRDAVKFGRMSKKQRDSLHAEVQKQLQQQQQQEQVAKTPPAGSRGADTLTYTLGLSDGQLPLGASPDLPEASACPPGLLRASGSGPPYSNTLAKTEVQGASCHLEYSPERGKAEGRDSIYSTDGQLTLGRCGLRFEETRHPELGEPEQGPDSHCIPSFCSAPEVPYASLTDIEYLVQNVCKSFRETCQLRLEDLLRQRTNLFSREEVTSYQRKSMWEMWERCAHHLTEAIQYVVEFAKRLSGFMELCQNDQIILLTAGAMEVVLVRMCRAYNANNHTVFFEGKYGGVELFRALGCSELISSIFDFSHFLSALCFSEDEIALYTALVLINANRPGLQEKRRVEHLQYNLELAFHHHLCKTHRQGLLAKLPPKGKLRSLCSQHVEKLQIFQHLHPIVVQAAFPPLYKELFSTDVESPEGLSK

[5] = molecular target: T4, Nuclear receptor ROR-gamma (Mus musculus, UniProt P51450); assay: as §2; format: cell-based
T4 sequence (P51450 whole entry): T3 sequence (whole entry)

[6] = Stability in rat liver microsomes assessed as parent compound remaining after 2 hrs by LC-MS/MS analysis; format: ADME, microsome; settings: read-out: Stability
[7] = molecular target: T4, Nuclear receptor ROR-gamma; assay: Transrepression of RORgammat in anti-CD3/CD28 stimulated C57BL/6 mouse CD4-positive T cells assessed as suppression of T cell differentiation to Th17 cells by measuring reduction in IL-17A level after 4 days by ELISA
[8] = Stability in human liver microsomes assessed as parent compound remaining after 2 hrs by LC-MS/MS analysis; format: ADME, microsome; settings: read-out: Stability
[9] = Solubility of the compound in KH2PO4/Na2HPO4 buffer at pH 6.8 by shake-flask method; format: physicochemical
[10] = Solubility of the compound in NaCl/HCl buffer at pH 1.2 by shake-flask method; format: physicochemical

| SMILES | IC50 [1] | Efficacy [2] | IC50 [3] | Efficacy [4] | IC50 [5] | remaining at 2 h [6] | IC50 [7] | remaining at 2 h [8] | solubility thermodynamic [9] | solubility thermodynamic [10] |
| --- | --- | --- | --- | --- | --- | --- | --- | --- | --- | --- |
| CCS(=O)(=O)c1ccc(CC(=O)Nc2ccc(C(C)(C)C(=O)N3CCCCC3)cc2)cc1 | 0.036 µM | 91% | 0.43 µM | 50% | > 10 µM | – | – | – | – | – |
| CCS(=O)(=O)c1ccc(CC(=O)Nc2ccc(C(C)(C)C(=O)Nc3ccc(F)cc3F)cc2)cc1 | – | 91% | 0.095 µM | 73% | 1.8 µM | 73% | 1.3 µM | 97% | – | – |
| CCS(=O)(=O)c1ccc(CC(=O)Nc2ccc(C(C)(C)C(=O)N(C)c3ccccc3)cc2)cc1 | < 0.03 µM | 93% | 0.014 µM | 76% | 0.33 µM | – | – | – | – | – |
| CCS(=O)(=O)c1ccc(CC(=O)Nc2ccc(C(C)(C)C(=O)Nc3ccccc3F)cc2)cc1 | – | 93% | 0.0044 µM | 76% | 0.1 µM | 19% | 0.1 µM | 67% | – | – |
| CCS(=O)(=O)c1ccc(CC(=O)Nc2ccc(C(C)(C)C(=O)N3CCC3)cc2)cc1 | < 0.03 µM | 90% | 0.18 µM | 52% | > 10 µM | – | – | – | – | – |
| CCS(=O)(=O)c1ccc(CC(=O)Nc2ccc(C(C)(C)C(=O)Nc3cc(F)ccn3)cc2)cc1 | – | 94% | 0.031 µM | 86% | 0.32 µM | 47% | – | 69% | > 50 µM | > 50 µM |
| CCS(=O)(=O)c1ccc(CC(=O)Nc2ccc(C(C)(C)C(=O)Nc3cccnc3)cc2)cc1 | – | 93% | 0.15 µM | 63% | 4.5 µM | – | – | – | – | – |
| CCS(=O)(=O)c1ccc(CC(=O)Nc2ccc(C(C)(C)C(=O)N3CC4(CCC4)C3)cc2)cc1 | 0.033 µM | 89% | 0.47 µM | 55% | 10 µM | – | – | – | – | – |
| CCS(=O)(=O)c1ccc(CC(=O)Nc2ccc(C(C)(C)C(=O)Nc3cccc(F)c3)cc2)cc1 | – | 94% | 0.0098 µM | 84% | 0.26 µM | 24% | 0.29 µM | 2.7% | – | – |
| CCS(=O)(=O)c1ccc(CC(=O)Nc2ccc(C(C)(C)C(=O)Nc3cc(Cl)ccn3)cc2)cc1 | – | 95% | 0.0082 µM | 86% | 0.1 µM | 8.1% | – | 40% | 4.7 µM (≈ 2.35 µg/mL) | > 50 µM |
| CCS(=O)(=O)c1ccc(CC(=O)Nc2ccc(C(C)(C)C(=O)Nc3ccccc3C)cc2)cc1 | – | 93% | 0.14 µM | 57% | 6.8 µM | 6% | – | 24% | – | – |
| CCS(=O)(=O)c1ccc(CC(=O)Nc2ccc(C(C)(C)C(=O)N(C)C)cc2)cc1 | 0.03 µM | 89% | 0.37 µM | 51% | > 10 µM | – | – | – | – | – |
| CCS(=O)(=O)c1ccc(CC(=O)Nc2ccc(C(C)(C)C(=O)Nc3ccccn3)cc2)cc1 | – | 93% | 0.04 µM | 73% | 1.3 µM | 36% | – | 60% | > 50 µM | > 50 µM |
| CCS(=O)(=O)c1ccc(CC(=O)Nc2ccc(C(C)(C)C(=O)Nc3ccncc3)cc2)cc1 | – | 87% | 1.8 µM | 47% | > 10 µM | 25% | – | 4.3% | > 50 µM | > 50 µM |
| CCS(=O)(=O)c1ccc(CC(=O)Nc2ccc(C(C)(C)C(=O)Nc3ccccc3)cc2)cc1 | < 0.03 µM | 93% | 0.014 µM | 69% | 0.47 µM | 30% | 0.48 µM | 8.5% | 26.6 µM (≈ 12.4 µg/mL) | 46.9 µM (≈ 21.8 µg/mL) |
| CCS(=O)(=O)c1ccc(CC(=O)Nc2ccc(C(C)(C)C(=O)Nc3cccc(C(F)(F)F)n3)cc2)cc1 | – | 90% | 0.5 µM | 66% | 5.4 µM | 71% | – | 74% | 0.6 µM (≈ 0.32 µg/mL) | 1.1 µM (≈ 0.587 µg/mL) |
| CCOC(=O)C(C)(C)c1ccc(NC(=O)Cc2ccc(S(=O)(=O)CC)cc2)cc1 | 0.064 µM | 93% | 0.4 µM | 77% | 3.1 µM | – | – | – | – | – |
| CCS(=O)(=O)c1ccc(CC(=O)Nc2ccc(C(C)(C)C(=O)N3CCc4ccccc43)cc2)cc1 | < 0.03 µM | 93% | 0.01 µM | 87% | 0.11 µM | – | – | – | – | – |
| CCS(=O)(=O)c1ccc(CC(=O)Nc2ccc(C(C)(C)C(=O)Nc3cc(C(F)(F)F)ccn3)cc2)cc1 | – | 94% | 0.025 µM | 94% | 0.078 µM | 23% | – | 36% | 0.5 µM (≈ 0.267 µg/mL) | 26 µM (≈ 13.9 µg/mL) |
| CCS(=O)(=O)c1ccc(CC(=O)Nc2ccc(C(C)(C)C(=O)Nc3cc(C#N)ccn3)cc2)cc1 | – | 97% | 0.04 µM | 91% | 0.29 µM | 72% | – | 92% | 25 µM (≈ 12.3 µg/mL) | 47 µM (≈ 23.1 µg/mL) |
| CCS(=O)(=O)c1ccc(CC(=O)Nc2ccc(C(C)(C)C(=O)Nc3ncccc3F)cc2)cc1 | – | 92% | 0.31 µM | 37% | > 10 µM | 80% | – | 93% | > 50 µM | > 50 µM |
| CCS(=O)(=O)c1ccc(CC(=O)Nc2ccc(C(C)(C)C(=O)N3Cc4ccccc4C3)cc2)cc1 | < 0.03 µM | 92% | 0.26 µM | 84% | 1.9 µM | – | – | – | – | – |
